Laboratory results from patent EP0032314A1, “Aroylpyrrole derivatives, processes for their preparation and their use” (BEECHAM GROUP PLC, priority 1980, dated 1981).

Columns and labels:
[1] = system: phenylquinone induced mouse writhing; test: phenylquinone induced mouse writhing test (analgesic activity); type: in vivo; conditions: po
Method: Analgesic activity was determined using a conventional phenylquinone induced mouse writhing test.

test animals = conditions: in vivo
[2] = reported in J. Pharmacol, Exptl. Therap. 1973, 185, 127-138; cited from earlier work

Compound | ED50 [1] | gastric irritancy (test animals) | anti-inflammatory activity [2]
CC(=O)CCc1cc(C)c(C(=O)c2ccc(Cl)cc2)n1C [Example 1, 4-(1,4-dimethyl-p-chlorobenzoyl-2-pyrryl)butan-2-one] | 6.1 mg/kg |  | 
Cc1ccc(C(=O)c2ccc(CC(=O)O)n2C)cc1 [Tolmetin] |  | causes gastric irritancy | possess anti-inflammatory activity
